Where a name gives a salt, the structure may show the parent alone.
Each molecule was assayed on recombinant guanylate cyclase reporter cell line (assay: Effect on a recombinant guanylate cyclase reporter cell line). Settings: in some cases mean values from individual determinations, read-out: MEC (minimum effective concentration).
Type: cell-based
Protocol: B-2. Effect on a Recombinant Guanylate Cyclase Reporter Cell Line
The cellular activity of the compounds according to the invention is determined using a recombinant guanylate cyclase reporter cell line, as described in F. Wunder et al., Anal. Biochem. 339, 104-112 (2005).
Representative MEC values (MEC=minimum effective concentration) for the compounds of the invention are shown in the table below (in some cases as mean values from individual determinations): […]

Structure (SMILES) | minimal effective concentration
Cc1cc(OCc2c(F)cccc2F)n2nc(C)c(-c3cnn(CCC(=O)NC4CC4)c3)c2c1 [Example 23, N-Cyclopropyl-3-(4-{7-[(2,6-difluorobenzyl)oxy]-2,5-dimethylpyrazolo[1,5-a]pyridin-3-yl}-1H-pyrazol-1-yl)propanamide] | 0.03 µM
CCOC(=O)c1cncc(-c2c(C)nn3c(OCc4c(F)cccc4F)cc(C)cc23)c1 [Example 18, Ethyl 5-{7-[(2,6-difluorobenzyl)oxy]-2,5-dimethylpyrazolo[1,5-a]pyridin-3-yl}nicotinate] | 10 µM
Cc1cc(OCc2c(F)cccc2F)n2nc(C)c(-c3cnn(CC(C)(C)N)c3)c2c1 [Example 16, 1-(4-{7-[(2,6-Difluorobenzyl)oxy]-2,5-dimethylpyrazolo[1,5-a]pyridin-3-yl}-1H-pyrazol-1-yl)-2-methylpropane-2-amine] | 0.1 µM
CC(=O)c1cccc(-c2c(C)nn3c(OCc4c(F)cccc4F)cc(C)cc23)c1 [Example 2, 1-(3-{7-[(2,6-Difluorobenzyl)oxy]-2,5-dimethylpyrazolo[1,5-a]pyridin-3-yl}phenyl)ethanone] | 0.53 µM
Cc1cc(OCc2c(F)cccc2F)n2nc(C)c(-c3cn[nH]c3)c2c1 [Example 1, 7-[(2,6-Difluorobenzyl)oxy]-2,5-dimethyl-3-(1H-pyrazol-4-yl)pyrazolo[1,5-a]pyridine] | 0.03 µM
Cc1cc(OCc2c(F)ccc(F)c2F)n2nc(C)c(-c3cnn(CCN4CCOCC4)c3)c2c1 [Example 32, 2,5-Dimethyl-3-{1-[2-(morpholin-4-yl)ethyl]-1H-pyrazol-4-yl}-7-[(2,3,6-trifluorobenzyl)oxy]pyrazolo[1,5-a]pyridine trifluoroacetate] | 0.1 µM
Cc1cc(OCC2CCCCC2)n2nc(C)c(-c3cnn(CCN4CCOCC4)c3)c2c1 [Example 33, 7-(Cyclohexylmethoxy)-2,5-dimethyl-3-{1-[2-(morpholin-4-yl)ethyl]-1H-pyrazol-4-yl}pyrazolo[1,5-a]pyridine] | 0.1 µM
Cc1cc(OCc2c(F)cccc2F)n2nc(C)c(-c3cncnc3)c2c1 [Example 29, 7-[(2,6-Difluorobenzyl)oxy]-2,5-dimethyl-3-(pyrimidin-5-yl)pyrazolo[1,5-a]pyridine] | 0.3 µM
Cc1cc(OCc2c(F)cccc2F)n2nc(C)c(-c3cc(F)ncc3F)c2c1 [Example 17, 7-[(2,6-Difluorobenzyl)oxy]-3-(2,5-difluoropyridin-4-yl)-2,5-dimethylpyrazolo[1,5-a]pyridine] | 2 µM
CC(=O)Nc1cccc(-c2c(C)nn3c(OCc4c(F)cccc4F)cc(C)cc23)c1 [Example 3, 1-(3-{7-[(2,6-Difluorobenzyl)oxy]-2,5-dimethylpyrazolo[1,5-a]pyridin-3-yl}phenyl)acetamide] | 0.065 µM
COC(=O)CCn1cc(-c2c(C)nn3c(OCc4c(F)cccc4F)cc(C)cc23)cn1 [Example 21, Methyl 3-(4-{7-[(2,6-difluorobenzyl)oxy]-2,5-dimethylpyrazolo[1,5-a]pyridin-3-yl}-1H-pyrazol-1-yl)propanoate trifluoroacetate] | 0.03 µM
Cc1cc(OCc2c(F)cccc2F)n2nc(C)c(-c3nc(N)c4c(n3)NC(=O)C4(C)C)c2c1 [Example 34, 4-Amino-2-{7-[(2,6-difluorobenzyl)oxy]-2,5-dimethylpyrazolo[1,5-a]pyridin-3-yl}-5,5-dimethyl-5,7-dihydro-6H-pyrrolo[2,3-d]pyrimidin-6-one trifluoroacetate] | 1 µM
Cc1cc(OCc2c(F)cccc2F)n2nc(C)c(-c3cncc(C(=O)O)c3)c2c1 [Example 27, 5-{7-[(2,6-Difluorobenzyl)oxy]-2,5-dimethylpyrazolo[1,5-a]pyridin-3-yl}nicotinic acid] | 2 µM
Cc1cc(OCc2c(F)cccc2F)n2nc(C)c(-c3csc(CN4CCOCC4)c3)c2c1 [Example 4, 7-[(2,6-Difluorobenzyl)oxy]-2,5-dimethyl-3-[5-(morpholin-4-ylmethyl)-3-thienyl]pyrazolo[1,5-a]pyridine] | 0.07 µM
Cc1cc(OCc2c(F)cccc2F)n2nc(C3CC3)c(-c3cnn(CCN4CCOCC4)c3)c2c1 [Example 30, 2-Cyclopropyl-7-[(2,6-difluorobenzyl)oxy]-5-methyl-3-{1-[2-(morpholin-4-yl)ethyl]-1H-pyrazol-4-yl}pyrazolo[1,5-a]pyridine] | 0.01 µM
Cc1cc(OCc2c(F)cccc2F)n2nc(C)c(-c3cnn(CCc4c(C)n[nH]c4C)c3)c2c1 [Example 25, 7-[(2,6-Difluorobenzyl)oxy]-3-{1-[2-(3,5-dimethyl-1H-pyrazol-4-yl)ethyl]-1H-pyrazol-4-yl}-2,5-dimethylpyrazolo[1,5-a]pyridine] | 0.065 µM
Cc1cc(OCc2c(F)cccc2F)n2nc(C)c(-c3cccc(CN4CCCC4)c3)c2c1 [Example 11, 7-[(2,6-Difluorobenzyl)oxy]-2,5-dimethyl-3-[3-(pyrrolidin-1-ylmethyl)phenyl]pyrazolo[1,5-a]pyridine] | 0.03 µM

Structure (SMILES) | minimal effective concentration
Cc1cc(OCc2c(F)cccc2F)n2nc(C)c(-c3cnn(CCN4CCOCC4)c3)c2c1 [Example 5, 7-[(2,6-Difluorobenzyl)oxy]-2,5-dimethyl-3-{1-[2-(morpholin-4-yl)ethyl]-1H-pyrazol-4-yl}pyrazolo[1,5-a]pyridine] | 0.07 µM
Cc1cc(OCc2c(F)cccc2F)n2nc(C)c(-c3cnn(-c4ccc(F)cc4)c3)c2c1 [Example 8, 7-[(2,6-Difluorobenzyl)oxy]-3-[1-(4-fluorophenyl)-1H-pyrazol-4-yl]-2,5-dimethylpyrazolo[1,5-a]pyridine] | 1 µM
CCS(=O)(=O)c1cccc(-c2c(C)nn3c(OCc4c(F)cccc4F)cc(C)cc23)c1 [Example 7, 7-[(2,6-Difluorobenzyl)oxy]-3-[3-(ethylsulphonyl)phenyl]-2,5-dimethylpyrazolo[1,5-a]pyridine] | 0.065 µM
Cc1cc(OCc2c(F)cccc2F)n2nc(C)c(-c3cccc(C(N)=O)c3)c2c1 [Example 12, 3-{7-[(2,6-Difluorobenzyl)oxy]-2,5-dimethylpyrazolo[1,5-a]pyridin-3-yl}benzamide] | 0.055 µM
Cc1cc(OCc2c(F)cccc2F)n2nc(C)c(-c3cccc(N4CCCC4)c3)c2c1 [Example 14, 7-[(2,6-Difluorobenzyl)oxy]-2,5-dimethyl-3-[3-(pyrrolidin-1-yl)phenyl]pyrazolo[1,5-a]pyridine] | 2 µM
Cc1cc(OCc2c(F)cccc2F)n2nc(C)c(-c3cnn(CCC(=O)O)c3)c2c1 [Example 22, 3-(4-{7-[(2,6-Difluorobenzyl)oxy]-2,5-dimethylpyrazolo[1,5-a]pyridin-3-yl}-1H-pyrazol-1-yl)propanoic acid trifluoroacetate] | 0.1 µM
Cc1cc(OCc2c(F)cccc2F)n2nc(C)c(-c3cnc(Cl)c(C)c3)c2c1 [Example 9, 3-(6-Chloro-5-methylpyridin-3-yl)-7-[(2,6-difluorobenzyl)oxy]-2,5-dimethylpyrazolo[1,5-a]pyridine] | 3 µM
Cc1cc(OCc2c(F)cccc2F)n2nc(C)c(-c3cccc(NS(C)(=O)=O)c3)c2c1 [Example 13, N-(3-{7-[(2,6-Difluorobenzyl)oxy]-2,5-dimethylpyrazolo[1,5-a]pyridin-3-yl}phenyl)methansulphonamide] | 0.1 µM
Cc1cc(OCc2c(F)cccc2F)n2nc(C3CC3)c(-c3cn[nH]c3)c2c1 [Example 31, 2-Cyclopropyl-7-[(2,6-difluorobenzyl)oxy]-5-methyl-3-(1H-pyrazol-4-yl)pyrazolo[1,5-a]pyridine] | 0.03 µM
Cc1cc(OCc2c(F)cccc2F)n2nc(C)c(-c3cnn(CCO)c3)c2c1 [Example 24, 2-(4-{7-[(2,6-Difluorobenzyl)oxy]-2,5-dimethylpyrazolo[1,5-a]pyridin-3-yl}-1H-pyrazol-1-yl)ethanol trifluoroacetate] | 0.065 µM
Cc1cn2c(-c3nc(N)nc(N)n3)c(C)nc2c(OCc2c(F)cccc2F)n1 [Example 20, 6-{8-[(2,6-Difluorobenzyl)oxy]-2,6-dimethylimidazo[1,2-a]pyrazin-3-yl}-1,3,5-triazine-2,4-diamine trifluoroacetate] | 2 µM
Cc1cc(OCc2c(F)cccc2F)n2nc(C)c(-c3cnn(Cc4ccccc4)c3)c2c1 [Example 6, 3-(1-Benzyl-1H-pyrazol-4-yl)-7-[(2,6-difluorobenzyl)oxy]-2,5-dimethylpyrazolo[1,5-a]pyridine] | 0.1 µM
Cc1cc(OCc2c(F)cccc2F)n2nc(C)c(-c3ccnc(N4CCNCC4)c3)c2c1 [Example 15, 7-[(2,6-Difluorobenzyl)oxy]-2,5-dimethyl-3-[2-(piperazin-1-yl)pyridin-4-yl]pyrazolo[1,5-a]pyridine] | 0.3 µM
Cc1cc(OCc2c(F)cccc2F)n2nc(C)c(-c3nc(NCC(C)(C)N)c4c(n3)NC(=O)C4(C)C)c2c1 [Example 35, 4-[(2-Amino-2-methylpropyl)amino]-2-{7-[(2,6-difluorobenzyl)oxy]-2,5-dimethylpyrazolo[1,5-a]pyridin-3-yl}-5,5-dimethyl-5,7-dihydro-6H-pyrrolo[2,3-d]pyrimidin-6-one] | 3 µM
Cc1cn2c(-c3cn[nH]c3)c(C)nc2c(OCc2c(F)cccc2F)n1 [Example 19, 8-[(2,6-Difluorobenzyl)oxy]-2,6-dimethyl-3-(1H-pyrazol-4-yl)imidazo[1,2-a]pyrazine trifluoroacetate] | 0.3 µM
Cc1cc(OCc2c(F)cccc2F)n2nc(C)c(-c3cncc(C(N)=O)c3)c2c1 [Example 28, 5-{7-[(2,6-Difluorobenzyl)oxy]-2,5-dimethylpyrazolo[1,5-a]pyridin-3-yl}nicotinamide] | 0.03 µM
